{
  "source": "paper PMC11676982",
  "about": "“Heterotropic Activation of Cytochrome P450 3A4 by Perillyl Alcohol” (Pharmaceutics, 2024)",
  "key": {"CYP2B6 [1]": {"molecular_target": "T1, CYP2B6 (Homo sapiens, UniProt P20813)", "T1 sequence (P20813 1-491)": "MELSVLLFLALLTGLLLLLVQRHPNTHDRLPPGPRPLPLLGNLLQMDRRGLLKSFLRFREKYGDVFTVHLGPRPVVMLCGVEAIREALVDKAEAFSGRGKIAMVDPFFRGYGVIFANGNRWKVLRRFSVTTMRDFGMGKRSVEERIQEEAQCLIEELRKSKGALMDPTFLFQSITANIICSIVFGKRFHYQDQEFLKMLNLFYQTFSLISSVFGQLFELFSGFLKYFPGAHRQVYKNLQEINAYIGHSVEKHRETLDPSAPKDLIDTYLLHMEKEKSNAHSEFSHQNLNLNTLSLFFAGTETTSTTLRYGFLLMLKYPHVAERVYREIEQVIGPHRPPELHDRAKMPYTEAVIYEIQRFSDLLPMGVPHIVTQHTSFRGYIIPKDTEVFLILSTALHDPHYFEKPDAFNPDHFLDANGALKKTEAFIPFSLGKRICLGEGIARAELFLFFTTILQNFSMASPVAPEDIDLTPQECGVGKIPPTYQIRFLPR", "assay": "biochemical", "quoted_text": "(§1) A 5 min pre-incubation was performed prior to initiating reactions with the addition of 1 mM NADPH. After incubation at 37 °C for 10 min, 200 μL of ice-cold acetonitrile containing 100 nM carbamazepine as an internal standard was added to terminate the reaction. The samples were agitated and centrifuged at 4 °C for 20 min at 3000× g. The supernatants were transferred to a 96-well plate for LC-MS/MS analysis. The experiment was performed using three separate samples.\n(§2) Data acquired from the evaluation of enzyme inhibition using various concentrations of substrates and test compounds were fit to different models (competitive, noncompetitive, uncompetitive, or mixed), and inhibition constant (Ki) and goodness of fit values were obtained using GraphPad Prism. The appropriate type of inhibition was selected based on statistical goodness of fit tests including Akaike’s information criterion (AICc) with correction for small sample size and the standard deviation of the residuals (Sy.x)."}, "CYP3A4 [2]": {"molecular_target": "T2, CYP3A4 (Homo sapiens, UniProt P08684)", "T2 sequence (P08684 whole entry)": "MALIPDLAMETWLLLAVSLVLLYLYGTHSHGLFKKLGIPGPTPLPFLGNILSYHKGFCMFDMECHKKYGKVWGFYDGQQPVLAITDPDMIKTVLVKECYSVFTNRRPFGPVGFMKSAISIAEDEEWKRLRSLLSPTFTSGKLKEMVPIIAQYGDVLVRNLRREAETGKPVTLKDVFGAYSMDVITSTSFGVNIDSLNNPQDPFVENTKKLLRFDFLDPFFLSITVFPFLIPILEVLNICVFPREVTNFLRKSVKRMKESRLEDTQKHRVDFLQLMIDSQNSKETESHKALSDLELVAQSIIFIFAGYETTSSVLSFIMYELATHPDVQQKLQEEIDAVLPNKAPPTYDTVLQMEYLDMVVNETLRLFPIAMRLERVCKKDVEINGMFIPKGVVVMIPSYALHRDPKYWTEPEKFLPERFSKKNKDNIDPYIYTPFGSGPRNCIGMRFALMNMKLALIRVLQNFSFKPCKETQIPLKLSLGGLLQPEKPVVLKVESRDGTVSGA", "assay": "Kinetic parameters of MDZ hydroxylation in pooled HLMs in the presence of (−)-POH", "assay_type": "in vitro ADME", "settings": "100 μM (−)-POH", "description": "The supernatants obtained after centrifuging at 3000× g for 20 min at 4 °C were injected into LC-MS/MS for analysis. The experiment was performed using four separate samples.\nKinetic parameters were estimated using GraphPad Prism to plot activities against the log of MDZ concentration in the presence of (–)-POH."}, "CYP3A4 [3]": {"molecular_target": "T2, CYP3A4"}, "CYP2C9 [4]": {"molecular_target": "T3, CYP2C9 (Homo sapiens, UniProt P11712)", "T3 sequence (P11712 whole entry)": "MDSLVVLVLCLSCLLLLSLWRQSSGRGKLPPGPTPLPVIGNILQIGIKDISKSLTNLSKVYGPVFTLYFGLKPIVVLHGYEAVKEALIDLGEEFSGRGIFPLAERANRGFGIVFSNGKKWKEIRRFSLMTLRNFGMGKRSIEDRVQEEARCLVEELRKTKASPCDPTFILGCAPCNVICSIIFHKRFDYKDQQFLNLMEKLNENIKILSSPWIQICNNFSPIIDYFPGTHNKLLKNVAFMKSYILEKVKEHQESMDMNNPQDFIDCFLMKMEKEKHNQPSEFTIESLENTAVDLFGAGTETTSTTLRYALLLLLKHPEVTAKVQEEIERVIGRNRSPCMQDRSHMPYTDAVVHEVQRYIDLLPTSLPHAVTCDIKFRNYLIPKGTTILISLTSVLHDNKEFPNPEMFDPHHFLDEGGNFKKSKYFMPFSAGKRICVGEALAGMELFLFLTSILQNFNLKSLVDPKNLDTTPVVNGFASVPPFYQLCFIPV", "assay": "Effect of POH on fimasartan (FMS) metabolism in pooled HLMs: CYP2C9-mediated hydroxy butyl FMS formation", "assay_type": "in vitro ADME", "settings": "FMS 30 μM, 95% CI in parentheses; for pIC50: pooled HLMs, 10 min", "description": "The substrates were applied at a concentration that approximated their Km values. The reactions were preincubated for 5 min before being initiated with the addition of 1 mM NADPH. After 10 min incubation, reactions containing atorvastatin, buspirone, FMS, or nifedipine were terminated by the addition of 200 μL of ice-cold acetonitrile with 100 nM carbamazepine as an internal standard. For terminating reactions with donepezil or tadalafil, 200 μL of ice-cold methanol containing 0.5% (v/v) formic acid and 1 μM carbamazepine as internal standard was added to samples. […] The experiment was performed using three separate samples."}, "CYP2A6 [5]": {"molecular_target": "T4, CYP2A6 (Homo sapiens, UniProt P11509)", "T4 sequence (P11509 1-494)": "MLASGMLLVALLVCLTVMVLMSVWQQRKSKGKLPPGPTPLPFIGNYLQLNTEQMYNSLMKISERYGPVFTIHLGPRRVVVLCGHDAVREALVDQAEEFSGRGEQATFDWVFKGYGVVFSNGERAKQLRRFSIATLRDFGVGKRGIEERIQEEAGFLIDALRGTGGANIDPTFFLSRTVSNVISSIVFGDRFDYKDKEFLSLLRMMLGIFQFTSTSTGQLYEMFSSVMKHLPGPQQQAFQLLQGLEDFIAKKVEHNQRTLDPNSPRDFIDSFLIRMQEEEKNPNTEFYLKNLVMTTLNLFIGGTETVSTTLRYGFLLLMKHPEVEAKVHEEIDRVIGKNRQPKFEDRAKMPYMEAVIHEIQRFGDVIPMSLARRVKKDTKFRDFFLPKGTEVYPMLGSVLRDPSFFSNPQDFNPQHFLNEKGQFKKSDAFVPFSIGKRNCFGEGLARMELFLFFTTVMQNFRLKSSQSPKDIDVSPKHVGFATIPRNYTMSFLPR", "assay": "Metabolism-dependent inhibition assay (IC50 shift) in pooled HLMs, CYP2A6", "settings": "substrate coumarin; for pIC50: CYP2A6, pooled HLMs, 95% CI in parentheses", "description": "The experiments for determining metabolism-dependent inhibition were conducted utilizing a non-dilution method. […] The pre-incubation was initiated by the addition of 1 mM NADPH and incubation for 30 min. Subsequently, final incubation was performed with the addition of a substrate (5 μM coumarin or 50 μM bupropion) in the presence of NADPH for 10 min; the total volume of the mixture was 200 μL. […] Mixtures were subjected to centrifugation at 3000× g for 20 min at 4 °C, and the supernatants were analyzed using LC-MS/MS. The experiment was performed using three separate samples.\nThe CYP-mediated activities in the presence of test substances were expressed as percentages of the corresponding control values."}, "CYP3A4 [6]": {"molecular_target": "T2, CYP3A4", "remark": "listed apart in the source", "quoted_text": "To assess the effect of POH on the kinetics of the formation of 1′-hydroxymidazolam (1′-OH-MDZ) and 4-hydroxymidazolam (4-OH-MDZ), 5 μM MDZ was incubated with POH (0–100 μM) in hHOs for 24 h at 37 °C in a CO2 incubator. Samples were incubated in 24-well culture plates, with each well containing a total volume of 0.7 mL. At 2, 4, 6, and 24 h, 70 μL of medium was sampled, and reaction termination was achieved by adding an equal volume of ice-cold acetonitrile containing 100 nM carbamazepine as an internal standard. The supernatants were analyzed using LC-MS/MS after centrifugation at 10,000× g for 10 min at 4 °C. […] Data were normalized for protein concentrations measured using the Pierce™ BCA Protein Assay Kit (Thermo Fisher Scientific, Waltham, MA, USA) following the manufacturer’s instructions. The experiment was performed using four separate samples."}, "CYP2C19": {"molecular_target": "CYP2C19 (Homo sapiens, UniProt P33261)", "sequence (P33261 whole entry)": "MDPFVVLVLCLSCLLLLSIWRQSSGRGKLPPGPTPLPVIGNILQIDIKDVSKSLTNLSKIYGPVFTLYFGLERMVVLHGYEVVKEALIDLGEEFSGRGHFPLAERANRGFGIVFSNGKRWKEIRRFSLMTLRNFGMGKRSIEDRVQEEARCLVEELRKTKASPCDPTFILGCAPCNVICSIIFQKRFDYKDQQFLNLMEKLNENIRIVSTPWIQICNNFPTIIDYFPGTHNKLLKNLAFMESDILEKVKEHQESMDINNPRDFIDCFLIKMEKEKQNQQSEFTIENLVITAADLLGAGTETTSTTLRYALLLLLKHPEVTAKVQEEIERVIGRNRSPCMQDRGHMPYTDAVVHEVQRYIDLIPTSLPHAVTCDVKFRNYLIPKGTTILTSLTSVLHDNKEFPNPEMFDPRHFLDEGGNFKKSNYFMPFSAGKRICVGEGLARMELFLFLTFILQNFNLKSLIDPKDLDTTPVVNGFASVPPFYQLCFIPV", "assay": "Direct CYP inhibition assay in pooled HLMs, CYP2C19 (S-mephenytoin)"}, "CYP2A6 [7]": {"molecular_target": "T4, CYP2A6", "assay": "biochemical", "quoted_text": "as §1, §2"}, "CYP2C9 [8]": {"molecular_target": "T3, CYP2C9", "assay": "Direct CYP inhibition assay in pooled HLMs, CYP2C9 (tolbutamide)"}, "CYP2A6 [9]": {"molecular_target": "T4, CYP2A6", "assay": "Determination of CYP inhibition mode and Ki in pooled HLMs, CYP2A6-mediated coumarin 7-hydroxylation", "quoted_text": "as §1, §2"}, "CYP2C9 [10]": {"molecular_target": "T3, CYP2C9", "settings": "microsomes, 10 min, 50 μM, pH 7.4"}, "CYP2B6 [11]": {"molecular_target": "T1, CYP2B6", "assay": "Determination of CYP inhibition mode and Ki in pooled HLMs, CYP2B6-mediated bupropion hydroxylation", "quoted_text": "as §1, §2"}, "[12]": {"settings": "best fit by AICc and Sy.x, Dixon plots"}},
  "note": "pIC50, pKi: −log10 of the molar value. Read-outs that look alike come from different tables or passages of the source.",
  "data": [
    {"smiles": "C=C(C)[C@@H]1CC=C(CO)CC1", "note": "[(−)-POH, (−)-perillyl alcohol]", "values": [
      {"measurement": "pKi", "setting": "CYP2B6 [1]", "value": 5.42},
      {"measurement": "Increase of Vmax/Km value of MDZ 1′-hydroxylation compared with absence of (−)-POH", "setting": "CYP3A4 [2]", "value": 2.67, "unit": "fold"},
      {"measurement": "Increase of Vmax/Km value of MDZ 1′-hydroxylation compared with absence of (−)-POH", "setting": "CYP3A4 [2]; listed as POH", "value": 2.7, "unit": "fold"},
      {"measurement": "Formation of 1′-OH-MDZ relative to control without (−)-POH", "setting": "CYP3A4 [3]; human, 10 min, 50 μM, pH 7.4", "value": 1.83, "unit": "fold"},
      {"measurement": "Effect on CYP3A4 (midazolam) activity, MDZ 1′-hydroxylation", "setting": "CYP3A4 [3]; pooled HLMs, substrate midazolam, test compound 0–50 μM", "value": "Stimulation *"},
      {"measurement": "pIC50", "setting": "CYP2C9 [4]; IC50 against formation of 1-hydroxy butyl FMS", "value": 3.91},
      {"measurement": "pIC50", "setting": "CYP2C9 [4]; IC50 against formation of 4-hydroxy butyl FMS", "value": 4.20},
      {"measurement": "IC50 at 10 min", "setting": "CYP2C9 [4]; human, pooled human liver microsomes, pH 7.4, pooled HLMs, read-out: IC50 against formation of 2- or 3-hydroxy butyl FMS", "value": 62, "unit": "µM"},
      {"measurement": "pIC50", "setting": "CYP2A6 [5]; IC50, pre-incubation with NADPH, 30 min pre-incubation with NADPH", "value": 4.63},
      {"measurement": "pIC50", "setting": "CYP2A6 [5]; IC50, pre-incubation without NADPH, 30 min pre-incubation without NADPH", "value": 4.61},
      {"measurement": "IC50 fold-shift, CYP2A6", "setting": "CYP2A6 [5]; IC50 without NADPH/IC50 with NADPH", "value": 1.04},
      {"measurement": "Rate of 1′-OH-MDZ formation in hHOs", "setting": "CYP3A4 [6]; 2.5 μM", "value": "1.86 (1.64–2.07) pmol/h/mg protein"},
      {"measurement": "Rate of 1′-OH-MDZ formation in hHOs", "setting": "CYP3A4 [6]; 10 μM", "value": "2.04 (1.88–2.20) pmol/h/mg protein"},
      {"measurement": "Rate of 1′-OH-MDZ formation in hHOs", "setting": "CYP3A4 [6]; 25 μM", "value": "2.34 (2.18–2.49) pmol/h/mg protein"},
      {"measurement": "Rate of 1′-OH-MDZ formation in hHOs", "setting": "CYP3A4 [6]; 50 μM", "value": "3.21 (2.93–3.48) pmol/h/mg protein"},
      {"measurement": "Formation rate of 4-OH-MDZ in hHOs", "setting": "CYP3A4 [6]; 100 μM", "value": "0.159 ± 0.016", "unit": "pmol/h/mg protein"},
      {"measurement": "Increase of the rate of 1′-OH-MDZ formation compared with absence of (−)-POH", "setting": "CYP3A4 [6]; 100 μM", "value": 2.05, "unit": "fold"},
      {"measurement": "pIC50", "setting": "CYP2C19", "value": "< 4.30"},
      {"measurement": "pKi", "setting": "CYP2A6 [7]", "value": 5.20},
      {"measurement": "pIC50", "setting": "CYP2C9 [8]", "value": "< 4.30"},
      {"measurement": "Type of inhibition, CYP2A6", "setting": "CYP2A6 [9]; [12]", "value": "mixed inhibition model"},
      {"measurement": "Ki, CYP2A6, uncompetitive model (not selected)", "setting": "CYP2A6 [9]; pooled HLMs, coumarin, 95% CI in parentheses", "value": "10.9 (9.16–12.9) μM"},
      {"measurement": "CYP2C9 activity, % of the control level", "setting": "CYP2C9 [10]", "value": 64.2, "unit": "%"},
      {"measurement": "Type of inhibition, CYP2B6", "setting": "CYP2B6 [11]; [12]", "value": "mixed inhibition model"},
      {"measurement": "Ki, CYP2B6, uncompetitive model (not selected)", "setting": "CYP2B6 [11]; pooled HLMs, bupropion, 95% CI in parentheses", "value": "4.54 (3.62–5.56) μM"}
    ]}
  ]
}
